Data published in ChEMBL document CHEMBL1649420, “Identifying chelators for metalloprotein inhibitors using a fragment-based approach” (J Med Chem, 2011).

Legend:
Settings in all cases: at 1 mM
[1] = target: T1, Lethal factor (Bacillus anthracis) (UniProt P15917)
T1 sequence (whole entry): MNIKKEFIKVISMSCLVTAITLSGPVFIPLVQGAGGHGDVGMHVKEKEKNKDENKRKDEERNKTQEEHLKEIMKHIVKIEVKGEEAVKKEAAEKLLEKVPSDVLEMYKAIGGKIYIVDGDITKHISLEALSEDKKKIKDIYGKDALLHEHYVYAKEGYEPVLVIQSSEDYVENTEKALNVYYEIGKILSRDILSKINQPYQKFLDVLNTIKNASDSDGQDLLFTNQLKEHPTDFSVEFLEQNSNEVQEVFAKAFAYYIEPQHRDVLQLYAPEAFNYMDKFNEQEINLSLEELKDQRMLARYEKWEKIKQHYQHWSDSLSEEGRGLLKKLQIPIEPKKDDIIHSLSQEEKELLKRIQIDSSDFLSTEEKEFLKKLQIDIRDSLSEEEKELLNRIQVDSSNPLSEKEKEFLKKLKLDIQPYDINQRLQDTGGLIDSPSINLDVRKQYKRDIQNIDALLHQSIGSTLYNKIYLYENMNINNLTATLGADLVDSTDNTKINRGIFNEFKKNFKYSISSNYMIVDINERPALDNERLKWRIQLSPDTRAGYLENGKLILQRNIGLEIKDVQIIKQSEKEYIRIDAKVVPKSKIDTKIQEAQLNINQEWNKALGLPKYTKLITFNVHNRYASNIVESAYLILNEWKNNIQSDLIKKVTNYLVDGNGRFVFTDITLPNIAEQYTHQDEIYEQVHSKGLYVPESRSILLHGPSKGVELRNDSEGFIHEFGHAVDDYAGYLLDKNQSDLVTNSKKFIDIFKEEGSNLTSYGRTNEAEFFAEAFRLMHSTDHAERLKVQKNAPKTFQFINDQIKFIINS

[2] = target: T2, Interstitial collagenase (Homo sapiens) (UniProt P03956);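 further: recombinant human enzyme, with inhibition measured after 30 min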
T2 sequence (whole entry): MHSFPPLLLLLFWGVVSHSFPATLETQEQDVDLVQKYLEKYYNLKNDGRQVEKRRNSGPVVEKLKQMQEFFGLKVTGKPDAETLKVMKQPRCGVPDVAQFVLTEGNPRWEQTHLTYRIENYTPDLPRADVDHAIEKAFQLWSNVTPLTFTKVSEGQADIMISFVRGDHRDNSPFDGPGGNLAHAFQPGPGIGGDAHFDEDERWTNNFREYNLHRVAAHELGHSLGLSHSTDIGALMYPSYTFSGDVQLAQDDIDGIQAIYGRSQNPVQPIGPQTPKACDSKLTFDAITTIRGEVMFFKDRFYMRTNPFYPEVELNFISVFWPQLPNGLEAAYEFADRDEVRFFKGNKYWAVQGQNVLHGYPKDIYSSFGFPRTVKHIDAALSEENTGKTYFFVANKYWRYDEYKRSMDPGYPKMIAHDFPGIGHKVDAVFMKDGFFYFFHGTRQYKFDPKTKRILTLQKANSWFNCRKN

[3] = target: 72 kDa type IV collagenase (Homo sapiens, UniProt P08253);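 further: recombinant human enzyme, inhibition read after a 30 min incubation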
Chain of 72 kDa type IV collagenase (P08253 110-660 limits assumed): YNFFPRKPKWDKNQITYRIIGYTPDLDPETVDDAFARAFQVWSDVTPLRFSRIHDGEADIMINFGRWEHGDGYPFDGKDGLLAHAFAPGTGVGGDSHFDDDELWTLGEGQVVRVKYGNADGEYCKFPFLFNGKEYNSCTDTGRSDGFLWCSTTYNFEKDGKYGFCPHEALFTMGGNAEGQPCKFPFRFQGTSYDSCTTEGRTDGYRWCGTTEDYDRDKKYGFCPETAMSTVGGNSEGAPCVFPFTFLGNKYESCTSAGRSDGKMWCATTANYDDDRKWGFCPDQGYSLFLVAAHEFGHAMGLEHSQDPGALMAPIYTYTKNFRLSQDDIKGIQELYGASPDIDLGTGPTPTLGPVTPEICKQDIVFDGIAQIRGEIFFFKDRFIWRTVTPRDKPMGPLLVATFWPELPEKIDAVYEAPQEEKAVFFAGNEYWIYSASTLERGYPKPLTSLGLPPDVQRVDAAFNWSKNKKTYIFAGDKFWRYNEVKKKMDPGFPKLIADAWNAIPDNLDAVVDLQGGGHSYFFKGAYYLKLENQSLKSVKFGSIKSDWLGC

[4] = target: Stromelysin-1 (Homo sapiens) (UniProt P08254);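 further: recombinant enzyme, inhibition read after a 30 min incubation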
Chain of Stromelysin-1 (Homo sapiens) (P08254 100-477 limits assumed): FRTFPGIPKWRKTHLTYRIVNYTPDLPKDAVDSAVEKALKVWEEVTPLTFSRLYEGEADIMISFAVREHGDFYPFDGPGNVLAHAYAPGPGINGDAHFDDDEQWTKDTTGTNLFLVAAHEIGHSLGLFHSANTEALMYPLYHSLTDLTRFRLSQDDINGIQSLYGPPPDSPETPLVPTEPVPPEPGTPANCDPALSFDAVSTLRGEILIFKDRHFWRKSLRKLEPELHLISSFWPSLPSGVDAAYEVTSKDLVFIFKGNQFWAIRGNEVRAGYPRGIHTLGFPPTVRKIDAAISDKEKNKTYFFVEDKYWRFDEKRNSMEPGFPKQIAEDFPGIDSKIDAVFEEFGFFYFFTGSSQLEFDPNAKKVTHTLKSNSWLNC

[5] = target: Neutrophil collagenase (Homo sapiens) (UniProt P22894);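 further: recombinant human MMP8 enzyme, percent inhibition read after 30 min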
Chain of Neutrophil collagenase (Homo sapiens) (P22894 101-467 limits assumed): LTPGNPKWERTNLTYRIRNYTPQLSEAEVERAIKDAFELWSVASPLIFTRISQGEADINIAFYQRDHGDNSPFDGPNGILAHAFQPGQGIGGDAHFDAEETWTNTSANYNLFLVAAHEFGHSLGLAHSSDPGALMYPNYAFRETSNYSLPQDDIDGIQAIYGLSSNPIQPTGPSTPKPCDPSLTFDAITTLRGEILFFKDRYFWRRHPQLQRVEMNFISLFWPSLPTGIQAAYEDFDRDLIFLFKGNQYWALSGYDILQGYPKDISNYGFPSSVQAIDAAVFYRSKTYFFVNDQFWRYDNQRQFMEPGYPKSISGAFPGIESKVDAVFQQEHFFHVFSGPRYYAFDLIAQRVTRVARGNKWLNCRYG

[6] = target: Matrix metalloproteinase-9 (Homo sapiens) (UniProt P14780);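 further: recombinant human MMP9, activity read after 30 min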
Chain of Matrix metalloproteinase-9 (Homo sapiens) (P14780 whole entry): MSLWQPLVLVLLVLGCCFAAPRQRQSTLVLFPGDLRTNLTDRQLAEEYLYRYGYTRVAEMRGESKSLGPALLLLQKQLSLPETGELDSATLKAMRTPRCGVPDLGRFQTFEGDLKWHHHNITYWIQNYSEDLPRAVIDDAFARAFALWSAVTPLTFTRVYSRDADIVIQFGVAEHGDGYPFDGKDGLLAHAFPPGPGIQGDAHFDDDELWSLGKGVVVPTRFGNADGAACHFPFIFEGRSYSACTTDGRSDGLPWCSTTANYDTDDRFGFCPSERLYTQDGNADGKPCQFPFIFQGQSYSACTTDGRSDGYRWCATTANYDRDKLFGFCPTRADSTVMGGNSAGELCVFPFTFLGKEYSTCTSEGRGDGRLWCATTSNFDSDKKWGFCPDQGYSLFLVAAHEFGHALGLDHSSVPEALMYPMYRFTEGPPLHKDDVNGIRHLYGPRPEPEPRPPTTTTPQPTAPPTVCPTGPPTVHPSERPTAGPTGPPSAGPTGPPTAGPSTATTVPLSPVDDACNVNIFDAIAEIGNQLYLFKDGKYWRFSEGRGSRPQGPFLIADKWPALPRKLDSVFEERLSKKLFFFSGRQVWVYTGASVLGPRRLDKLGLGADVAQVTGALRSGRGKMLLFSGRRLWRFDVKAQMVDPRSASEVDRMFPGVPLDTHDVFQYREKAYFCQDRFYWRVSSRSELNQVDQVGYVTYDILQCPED

[7] = target: T3, Nitric oxide synthase, inducible (Mus musculus) (UniProt P29477);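 further: recombinant enzyme, activity read out colorimetrically after 40 min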
T3 sequence (whole entry): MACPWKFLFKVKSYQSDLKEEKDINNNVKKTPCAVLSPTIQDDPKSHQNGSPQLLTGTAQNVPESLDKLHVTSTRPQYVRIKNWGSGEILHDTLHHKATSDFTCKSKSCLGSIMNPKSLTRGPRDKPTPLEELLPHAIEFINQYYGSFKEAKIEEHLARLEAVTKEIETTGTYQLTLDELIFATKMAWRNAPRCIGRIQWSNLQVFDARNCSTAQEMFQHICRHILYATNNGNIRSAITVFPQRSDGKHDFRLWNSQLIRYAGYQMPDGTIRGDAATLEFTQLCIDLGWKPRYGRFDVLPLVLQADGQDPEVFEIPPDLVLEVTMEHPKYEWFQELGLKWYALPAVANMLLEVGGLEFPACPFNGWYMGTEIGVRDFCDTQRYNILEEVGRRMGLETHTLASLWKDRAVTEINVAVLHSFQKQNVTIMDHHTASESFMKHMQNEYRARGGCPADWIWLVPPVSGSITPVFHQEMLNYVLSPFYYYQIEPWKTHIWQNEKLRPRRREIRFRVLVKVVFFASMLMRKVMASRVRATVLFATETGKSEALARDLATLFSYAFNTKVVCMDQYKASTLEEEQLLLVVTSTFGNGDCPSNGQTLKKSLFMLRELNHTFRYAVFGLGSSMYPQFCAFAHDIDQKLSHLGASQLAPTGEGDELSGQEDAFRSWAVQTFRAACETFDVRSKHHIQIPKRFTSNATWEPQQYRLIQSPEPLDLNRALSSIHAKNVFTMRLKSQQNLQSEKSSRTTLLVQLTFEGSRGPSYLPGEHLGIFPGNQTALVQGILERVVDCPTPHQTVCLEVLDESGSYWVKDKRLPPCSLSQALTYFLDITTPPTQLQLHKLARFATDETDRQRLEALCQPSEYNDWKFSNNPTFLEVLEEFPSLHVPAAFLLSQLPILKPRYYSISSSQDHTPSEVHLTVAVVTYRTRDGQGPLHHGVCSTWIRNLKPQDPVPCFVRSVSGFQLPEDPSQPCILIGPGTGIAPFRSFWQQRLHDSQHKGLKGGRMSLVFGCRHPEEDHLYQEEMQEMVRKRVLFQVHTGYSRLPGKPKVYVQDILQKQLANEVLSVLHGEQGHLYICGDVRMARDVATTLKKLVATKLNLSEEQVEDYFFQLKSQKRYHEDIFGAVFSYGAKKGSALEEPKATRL

| Structure (SMILES) | inhibition [1] [%] | inhibition [2] [%] | inhibition [3] [%] | inhibition [4] [%] | inhibition [5] [%] | inhibition [6] [%] | inhibition [7] [%] |
| --- | --- | --- | --- | --- | --- | --- | --- |
| O=c1cc(CCl)occ1O | 30 | 67 | 65 | 68 | 59 | 42 | 63 |
| CC(=O)C(C)C(C)=O | -7 | 10 | -3 | -1 | 3 | -4 | 7 |
| Cc1ccc(O)c(C(=O)O)c1 | 56 | 28 | 65 | 76 | 26 | 2 | 21 |
| O=C(O)c1cccc(C(=O)O)n1 | 83 | 7 | -6 | 54 | 17 | -7 | 20 |
| c1ccc(CNCc2ccccn2)nc1 | 41 | 73 | 100 | 93 | 100 | 84 | -2 |
| Cc1cc(=O)c(O)c(CCl)o1 | 21 | 53 | 44 | 59 | 47 | 41 | 6 |
| Nc1ccc(C(=O)O)c(O)c1 | 30 | -7 | -1 | 4 | 8 | 24 | 8 |
| Cc1ccc(S(N)(=O)=O)cc1 | 6 | 11 | -2 | -5 | 9 | -7 | -5 |
| Cn1cccc(O)c1=O | 1 | 17 | 4 | -3 | 13 | 8 | -5 |
| Nc1[nH]cnc2ncnc1-2 | 16 | 17 | -1 | 10 | 9 | -3 | 6 |
| Cc1cccc(C(=O)O)c1O | 8 | 10 | 1 | 13 | 18 | 14 | 13 |
| O=c1cccccc1O [TROPOLONE] | 55 | 100 | 89 | 95 | 100 | 91 | 9 |
| [O-][n+]1cccc2cccc(O)c21 | 59 | 70 | 62 | 81 | 64 | 67 | 28 |
| O=C(O)c1cccc(O)c1O | 9 | 17 | -1 | -1 | 10 | 11 | 2 |
| CCn1ccc(=O)c(O)c1C | 10 | 19 | 16 | -8 | 29 | 10 | -9 |
| O=c1ccocc1O | 29 | 48 | 48 | 35 | 43 | 45 | 22 |
| Cc1cc(=O)c(O)co1 | 22 | 37 | 37 | 29 | 31 | 31 | -3 |
| Cc1cc(O)nc(O)n1 | 8 | 13 | -7 | 7 | 11 | 1 | 8 |
| Cc1occ(O)c(=O)c1C(=O)O | 45 | 60 | 56 | 80 | 55 | 51 | 17 |
| O=C(O)c1nccc2ccccc12 | 31 | 32 | 42 | 67 | 13 | 26 | 13 |
| O=C(O)c1cccc(Br)n1 | 75 | 11 | -4 | 18 | 1 | 4 | 17 |
| O=C(O)c1cccc[n+]1[O-] | 40 | 10 | 1 | 18 | 21 | 8 | -1 |
| O=C(O)c1ccc(C(=O)O)nc1 | 18 | 0 | -5 | 91 | -1 | -2 | -4 |
| O=C(O)c1ccc(F)cc1O | 17 | 14 | -8 | -2 | 4 | 5 | 1 |
| Cc1cc(O)nc(C)n1 | 18 | 10 | 2 | 6 | 11 | 1 | 8 |
| Nc1cc(=O)nc(N)[nH]1 | 34 | 3 | 6 | 14 | 4 | 2 | 7 |
| O=C(O)c1ccccc1O | 6 | -1 | 12 | -2 | 14 | 12 | 13 |
| Cc1nc(O)nc(O)c1C | 28 | 11 | 5 | 10 | 2 | -4 | 46 |
